Measured values published in patent US4725683A, “Fluorophenoxyphenoxypropionates and derivatives thereof” (The Dow Chemical Company, priority 1985, dated 1988).

Assays:
Test in all cases: Selective postemergence, track sprayer
Format in all cases: in vivo
Bermudagrass = test system: Bermudagrass
Method: (§1) Representative compositions of the present invention were evaluated for the postemergence control of species of plants listed in Table A. In these evaluations, pots of the plant species listed in Table A, grown to a height of about 10 cms, were used. Aqueous spray compositions, containing various amounts of 2-[4-(2-fluoro-4-trifluoromethylphenoxy)-phenoxy]propionic acid methy ester, i.e., 125 ppm, 62.5 ppm, 31.25 ppm, 15.6 ppm, 7.8 ppm and 3.9 ppm, respectively, were applied to separate pots. The spray compositions were made by mixing the active ingredient in acetone to 1/2 the final volume, i.e., twice the final concentration. An equal amount of water was added to the active ingredient/acetone mixture wherein the water contained 0.1 percent by weight of TWEEN® 200 surfactant. The application to the plants was made to the point of run-off and was carried out with conventional spraying equipment. Other pots were sprayed with similar compositions containing no toxicant to serve as controls. Thereafter, the pots were maintained under conditions conducive for plant growth. Two weeks after treatment, the pots were examined for plant growth and evaluated on a scale of 0 to 100 where 0 represents no effect and 100 represents complete kill. The results of the examination of the treated pots are set forth below in Table A.
(§2) To further define the selective postemergence herbicidal characteristics of compounds of the present invention, chemicals were applied to additional species of grasses as listed in Table F. Chemicals evaluated were 2-[4-(4-bromo-2-fluorophenoxy)phenoxy]propionic acid methyl ester and its R isomer. Treatment conditions were similar to those described in Example A except that chemicals were delivered through a track sprayer set to deliver the appropriate dosages in 280.6 L/hectare of water containing 0.1% Tween-20 surfactant.

Wild Proso Millet = test system: Wild Proso Millet
Method: as §1, §2

Red Top = test system: Red Top
Method: as §1, §2

Fall Panicum = test system: Fall Panicum
Method: as §1, §2

Giant Foxtail = test system: Giant Foxtail
Method: as §1, §2

Wild Oats = test system: Wild Oats
Method: as §1, §2

Orchardgrass = test system: Orchardgrass
Method: as §1, §2

Blackgrass = test system: Blackgrass
Method: as §1, §2

Wheat = test system: Wheat
Method: as §1, §2

Broadleaf Signalgrass = test system: Broadleaf Signalgrass
Method: as §1, §2

Sprangletop = test system: Sprangletop
Method: as §1, §2

Goosegrass = test system: Goosegrass
Method: as §1, §2

Crabgrass = test system: Crabgrass
Method: as §1, §2

Structure (SMILES): COC(=O)C(C)Oc1ccc(Oc2ccc(Br)cc2F)cc1 (racemic) [Example 4-Bromo-, 2-[4-(4-bromo-2-fluorophenoxy)phenoxy]propionic acid methyl ester]
- Percent Control (Bermudagrass; 0.0011 kgs/hectare): 0%
- Percent Control (Bermudagrass; 0.0023 kgs/hectare): 0%
- Percent Control (Bermudagrass; 0.0045 kgs/hectare): 0%
- Percent Control (Bermudagrass; 0.009 kgs/hectare): 20%
- Percent Control (Bermudagrass; 0.035 kgs/hectare): 90%
- Percent Control (Bermudagrass; 0.07 kgs/hectare): 95%
- Percent Control (Bermudagrass; 0.14 kgs/hectare): 90%
- Percent Control (Bermudagrass; 0.28 kgs/hectare): 100%
- Percent Control (Bermudagrass; 0.56 kgs/hectare): 100%
- Percent Control (Wild Proso Millet; 0.0011 kgs/hectare): 20%
- Percent Control (Wild Proso Millet; 0.0023 kgs/hectare): 20%
- Percent Control (Wild Proso Millet; 0.0045 kgs/hectare): 70%
- Percent Control (Wild Proso Millet; 0.009 kgs/hectare): 80%
- Percent Control (Wild Proso Millet; 0.035 kgs/hectare): 100%
- Percent Control (Wild Proso Millet; 0.07 kgs/hectare): 100%
- Percent Control (Wild Proso Millet; 0.14 kgs/hectare): 100%
- Percent Control (Wild Proso Millet; 0.28 kgs/hectare): 100%
- Percent Control (Wild Proso Millet; 0.56 kgs/hectare): 100%
- Percent Control (Red Top; 0.0011 kgs/hectare): 0%
- Percent Control (Red Top; 0.0023 kgs/hectare): 0%
- Percent Control (Red Top; 0.0045 kgs/hectare): 0%
- Percent Control (Red Top; 0.009 kgs/hectare): 20%
- Percent Control (Red Top; 0.035 kgs/hectare): 50%
- Percent Control (Red Top; 0.07 kgs/hectare): 80%
- Percent Control (Red Top; 0.14 kgs/hectare): 90%
- Percent Control (Red Top; 0.28 kgs/hectare): 100%
- Percent Control (Red Top; 0.56 kgs/hectare): 100%
- Percent Control (Fall Panicum; 0.0011 kgs/hectare): 0%
- Percent Control (Fall Panicum; 0.0023 kgs/hectare): 20%
- Percent Control (Fall Panicum; 0.0045 kgs/hectare): 50%
- Percent Control (Fall Panicum; 0.009 kgs/hectare): 80%
- Percent Control (Fall Panicum; 0.035 kgs/hectare): 100%
- Percent Control (Fall Panicum; 0.14 kgs/hectare): 100%
- Percent Control (Fall Panicum; 0.28 kgs/hectare): 100%
- Percent Control (Fall Panicum; 0.56 kgs/hectare): 100%
- Percent Control (Giant Foxtail; 0.0011 kgs/hectare): 100%
- Percent Control (Giant Foxtail; 0.0023 kgs/hectare): 100%
- Percent Control (Giant Foxtail; 0.0045 kgs/hectare): 100%
- Percent Control (Giant Foxtail; 0.009 kgs/hectare): 100%
- Percent Control (Giant Foxtail; 0.035 kgs/hectare): 100%
- Percent Control (Giant Foxtail; 0.14 kgs/hectare): 100%
- Percent Control (Giant Foxtail; 0.28 kgs/hectare): 100%
- Percent Control (Giant Foxtail; 0.56 kgs/hectare): 100%
- Percent Control (Wild Oats; 0.0011 kgs/hectare): 0%
- Percent Control (Wild Oats; 0.0023 kgs/hectare): 0%
- Percent Control (Wild Oats; 0.0045 kgs/hectare): 0%
- Percent Control (Wild Oats; 0.009 kgs/hectare): 0%
- Percent Control (Wild Oats; 0.035 kgs/hectare): 40%
- Percent Control (Wild Oats; 0.07 kgs/hectare): 40%
- Percent Control (Wild Oats; 0.14 kgs/hectare): 70%
- Percent Control (Wild Oats; 0.28 kgs/hectare): 90%
- Percent Control (Wild Oats; 0.56 kgs/hectare): 100%
- Percent Control (Orchardgrass; 0.0011 kgs/hectare): 0%
- Percent Control (Orchardgrass; 0.0023 kgs/hectare): 0%
- Percent Control (Orchardgrass; 0.0045 kgs/hectare): 0%
- Percent Control (Orchardgrass; 0.009 kgs/hectare): 0%
- Percent Control (Orchardgrass; 0.035 kgs/hectare): 0%
- Percent Control (Orchardgrass; 0.07 kgs/hectare): 80%
- Percent Control (Orchardgrass; 0.14 kgs/hectare): 90%
- Percent Control (Orchardgrass; 0.28 kgs/hectare): 90%
- Percent Control (Orchardgrass; 0.56 kgs/hectare): 90%
- Percent Control (Blackgrass; 0.0011 kgs/hectare): 30%
- Percent Control (Blackgrass; 0.0023 kgs/hectare): 50%
- Percent Control (Blackgrass; 0.0045 kgs/hectare): 50%
- Percent Control (Blackgrass; 0.009 kgs/hectare): 100%
- Percent Control (Blackgrass; 0.035 kgs/hectare): 100%
- Percent Control (Blackgrass; 0.07 kgs/hectare): 100%
- Percent Control (Blackgrass; 0.14 kgs/hectare): 100%
- Percent Control (Blackgrass; 0.28 kgs/hectare): 100%
- Percent Control (Blackgrass; 0.56 kgs/hectare): 100%
- Percent Control (Wheat; 0.0011 kgs/hectare): 0%
- Percent Control (Wheat; 0.0023 kgs/hectare): 0%
- Percent Control (Wheat; 0.0045 kgs/hectare): 0%
- Percent Control (Wheat; 0.009 kgs/hectare): 0%
- Percent Control (Wheat; 0.018 kgs/hectare): 0%
- Percent Control (Wheat; 0.035 kgs/hectare): 0%
- Percent Control (Wheat; 0.07 kgs/hectare): 0%
- Percent Control (Wheat; 0.14 kgs/hectare): 10%
- Percent Control (Wheat; 0.28 kgs/hectare): 40%
- Percent Control (Wheat; 0.56 kgs/hectare): 50%
- Percent Control (Broadleaf Signalgrass; 0.0011 kgs/hectare): 70%
- Percent Control (Broadleaf Signalgrass; 0.0023 kgs/hectare): 90%
- Percent Control (Broadleaf Signalgrass; 0.0045 kgs/hectare): 80%
- Percent Control (Broadleaf Signalgrass; 0.009 kgs/hectare): 100%
- Percent Control (Broadleaf Signalgrass; 0.035 kgs/hectare): 100%
- Percent Control (Broadleaf Signalgrass; 0.07 kgs/hectare): 100%
- Percent Control (Broadleaf Signalgrass; 0.14 kgs/hectare): 100%
- Percent Control (Broadleaf Signalgrass; 0.28 kgs/hectare): 100%
- Percent Control (Broadleaf Signalgrass; 0.56 kgs/hectare): 100%
- Percent Control (Sprangletop; 0.0011 kgs/hectare): 0%
- Percent Control (Sprangletop; 0.0023 kgs/hectare): 20%
- Percent Control (Sprangletop; 0.0045 kgs/hectare): 95%
- Percent Control (Sprangletop; 0.009 kgs/hectare): 100%
- Percent Control (Sprangletop; 0.035 kgs/hectare): 100%
- Percent Control (Sprangletop; 0.14 kgs/hectare): 100%
- Percent Control (Sprangletop; 0.28 kgs/hectare): 100%
- Percent Control (Sprangletop; 0.56 kgs/hectare): 100%
- Percent Control (Goosegrass; 0.0011 kgs/hectare): 0%
- Percent Control (Goosegrass; 0.0023 kgs/hectare): 0%
- Percent Control (Goosegrass; 0.0045 kgs/hectare): 30%
- Percent Control (Goosegrass; 0.009 kgs/hectare): 20%
- Percent Control (Goosegrass; 0.035 kgs/hectare): 80%
- Percent Control (Goosegrass; 0.07 kgs/hectare): 100%
- Percent Control (Goosegrass; 0.14 kgs/hectare): 100%
- Percent Control (Goosegrass; 0.28 kgs/hectare): 100%
- Percent Control (Goosegrass; 0.56 kgs/hectare): 100%
- Percent Control (Crabgrass; 0.0011 kgs/hectare): 0%
- Percent Control (Crabgrass; 0.0023 kgs/hectare): 0%
- Percent Control (Crabgrass; 0.0045 kgs/hectare): 50%
- Percent Control (Crabgrass; 0.009 kgs/hectare): 50%
- Percent Control (Crabgrass; 0.035 kgs/hectare): 100%
- Percent Control (Crabgrass; 0.07 kgs/hectare): 100%
- Percent Control (Crabgrass; 0.14 kgs/hectare): 100%
- Percent Control (Crabgrass; 0.28 kgs/hectare): 100%
- Percent Control (Crabgrass; 0.56 kgs/hectare): 100%
